Measurements: patent publication US20040192581A1, “Topical anti-infective formulations” (priority 2002, published 2004)

Test system: S. aureus
Test: In vitro efficacy of nisin cream versus nisin in PBS, viable cell count
Format: cell-based
Conditions: 37° C. for 60 minutes
Protocol: A topical cream (100 g) was prepared by heating the waxes and oils to about 70° C. Nisin in an aqueous solution was added after the cream had cooled to room temperature. The following ingredients were mixed in a 250 mL glass beaker until a homogenous compound was formed:
To test the anti-infective activity of the nisin-based cream, and to compare this activity to that of the same concentration of nisin in PBS, 20 μL of a suspension of 9×10^8 CFU/mL S. aureus was added to 1 g of cream and 1 mL of PBS at the nisin concentrations indicated in Table I. The samples were vortexed to mix and incubated at 37° C. for 60 minutes. 1 mL of mineral oil was added to the cream to facilitate pipetting and then serial dilutions were plated for enumeration of viable cells. The data in Table I show the viable cells for each nisin concentration.

## Nisin
Nisin 0.5 μg/ml in PBS
  viable cells, PBS: TNTC
Nisin 0.5 μg/ml in cream
  viable cells, Cream: 1082 cfu/ml
Nisin 2.5 μg/ml in PBS
  viable cells, PBS: TNTC
Nisin 2.5 μg/ml in cream
  viable cells, Cream: 140 cfu/ml
Nisin 12.5 μg/ml in PBS
  viable cells, PBS: 482 cfu/ml
Nisin 12.5 μg/ml in cream
  viable cells, Cream: 12 cfu/ml
